Columns and labels:
[1] = tested on: hypocotyl of Arabidopsis (Columbia); test: Functional analysis of putative fipexide metabolites, morphological observation of cut hypocotyl on 1/2 MS medium; format: cell-based; conditions: for callus induction activity: 0, 5, 15, 30, 45 or 60 μM in 1/2 MS medium, hypocotyl
From the text: Fipexide is a compound formed by an amide bond between 4-chlorophenoxyacetic acid and 1-piperonylpiperazine, and fipexide is deduced to be non-enzymatically hydrolyzed in a plant. Thus, treatment with 4-chlorophenoxyacetic acid or 1-piperonylpiperazine alone or treatment with both thereof was attempted.
Arabidopsis (Columbia) was allowed to germinate under weak lighting conditions for 7 days, the hypocotyl cut therefrom was placed on a ½ MS medium supplemented with 4-chlorophenoxyacetic acid and/or 1-piperonylpiperazine at 0, 5, 15, 30, 45, or 60 μM, and morphological observation thereof was conducted.

[2] = tested on: African violet leaf explants; conditions: cited from earlier work
[3] = tested on: cucumber seed (Natsu Suzumi); test: Fipexide activity test using other plants: cucumber seed in fipexide medium; format: in vivo
Experimental: (§1) As with the case of Arabidopsis germination conditions, plants were cultured in a fipexide medium with the use of sterilized seeds.

[4] = tested on: stalks and roots of wild-type Populus; test: Fipexide callus induction and redifferentiation in stalks and roots of Populus; format: cell-based
Experimental: The induced callus was cultured in a redifferentiation medium (i.e., a MS medium (0.9% agarose and 1.5% sucrose) containing auxin (indoleacetic acid) at 0.15 mg/1 and cytokinine (N^6-2-isopentenyladenine) at 0.5 mg/l or a ½ MS medium (0.9% Phytoagar (agarose for plants) and 0.2% sucrose) containing 3-indolebutyric acid (IBA) at 0.1 mg/l and 6-benzylaminopurine (BAP) at 0.2 mg/l).
The conditions of the aseptic stalk (which is not the hypocotyl) and the root organ sections of wild-type Populus 30 days after cutting in the presence of fipexide are shown at the center of FIG. 7, and the conditions thereof 30 days after the medium was exchanged with a fresh redifferentiation medium are shown on the right of FIG. 7.

[5] = tested on: germinated Eucalyptus seeds; test: Fipexide activity test using other plants: Eucalyptus seeds in fipexide medium; format: in vivo
Experimental: as §1

[6] = tested on: root organ of Arabidopsis (Columbia); test: Callus induction and redifferentiation by treatment with fipexide (cut root organ); format: cell-based; conditions: fipexide 45 μM for 2 weeks
Experimental: The root organ of Arabidopsis (Columbia) was cut, treated in a ½ MS medium supplemented with fipexide at 45 μM for 2 weeks to induce a callus, and then cultured in a redifferentiation medium (auxin/cytokinine). […] In contrast, the root organ of Arabidopsis (Columbia) was cut and then cultured in the redifferentiation medium without callus induction. As a result, redifferentiation was not observed (FIG. 2B).

[7] = tested on: Populus stalk samples (Populus tremula x tremuloides T89); test: Transformation by the Agrobacterium method utilizing callus induction caused by fipexide; format: cell-based
Experimental: Under general callus induction conditions for Populus, callus induction was conducted with the use of fipexide instead of auxin/cytokinine, and whether or not Agrobacterium-infected callus was transformed was examined. The GUS gene was introduced into a pH35GS binary vector comprising a Gateway cassette (Kubo M. et al., Genes & Dev., 19, 1855-1860, 2005) (manufactured by […] Innovations Inc.; Production code: IN3-VEC17) using the Gateway system, and the resulting binary vector was used for the Agrobacterium method, so as to confirm infection. 1. From young plants of aseptically cultured Populus (Populus tremula x tremuloides […]) that had been grown in pots, stalk samples (length: 5 mm) were cut. 2. The stalk samples were cultured in the presence of Agrobacterium (for 3 days, in the dark, at 22° C.). 3. After Agrobacterium was washed away, the stalk samples were placed on MS1 medium or modified MS1 medium (containing 30 μM fipexide instead of 3-indolebutyric acid (IBA) and 6-benzylaminopurine (BAP)) and cultured at 25° C. 4. […] Two months after the initiation of callus induction culture, 23 calluses were fixed in 90% (w/w) acetone at -30° C. overnight, the samples were washed twice with 50 mM PBS buffer (pH 7.0), and the samples were subjected to incubation in GUS substrate solution at 37° C. for 15 minutes for staining.

[8] = tested on: wild-type rice (Nipponbare); test: Fipexide activity test using other plants: rice seeds in fipexide medium; format: in vivo
Experimental: as §1

[9] = tested on: Arabidopsis (Columbia) wild-type seeds; test: Morphological observation of Arabidopsis (Columbia) by treatment with fipexide (seeds sowed in 1/2 MS medium); format: in vivo; conditions: for callus formation (site): 1/2 MS medium, seeds
Experimental: Wild-type seeds of Arabidopsis (Columbia) were sowed in a ½ MS medium supplemented with fipexide at 0, 15, 30, or 45 μM, and morphological observation was conducted.

Arabidopsis hypocotyl = test: Comparison of fipexide with conventional technique (2,4-D/kinetin) for callus induction; format: cell-based; conditions: fipexide 45 μM vs 2,4-dichlorophenoxyacetic acid 2.26 μM and kinetin 0.465 μM, constant lighting, 87 days
Experimental: Callus induction in Arabidopsis that was carried out at the optimized auxin/cytokinine concentration (i.e., 2,4-dichlorophenoxyacetic acid at 2.26 μM and kinetin at 0.465 μM) was compared with callus induction that was carried out at the fipexide concentration of 45 μM.

soybean seed (Tsurunoko) = test: Fipexide activity test using other plants: soybean seed in fipexide medium; format: in vivo
Experimental: as §1

tomato seed (Micro-Tom) = test: Fipexide activity test using other plants: tomato seed in fipexide medium; format: in vivo
Experimental: as §1

Row | SMILES | callus induction activity [1] | leaf area ([1]; treatment alone) | number and length of lateral roots ([1]; treatment alone) | callus formation efficiency [2] | number of days required from implanting of explants to callus formation, and formation of adventitious shoots and adventitious roots ([2]; treatment at a particular concentration) | callus induction [3] | redifferentiation of the induced callus in redifferentiation medium ([4]; MS medium with indoleacetic acid 0.15 mg/l and N6-2-isopentenyladenine 0.5 mg/l, or 1/2 MS medium with IBA 0.1 mg/l and BAP 0.2 mg/l) | callus induction ([4]; stalks and roots of Populus in fipexide medium) | callus induction [5] | redifferentiation in redifferentiation medium (auxin/cytokinine) after callus induction [6] | GUS activity in calluses (transformation) ([7]; 23 calluses, two months after initiation of callus induction culture, 30 μM fipexide) | callus formation on the fourth week ([7]; Agrobacterium-treated stalk samples, 25° C., modified MS1 medium with 30 μM fipexide vs conventional MS1 medium) | callus formation ([8]; fipexide 45 μM, 30 days after seed germination) | callus induction ([8]; germinated rice seeds, fipexide medium) | callus formation (site) ([9]; fipexide 15 μM (low concentration)) | callus formation (site) ([9]; fipexide 45 μM (high concentration)) | callus formation in the root ([9]; fipexide at high concentration) | callus induction efficiency compared with optimized auxin/cytokinine (Arabidopsis hypocotyl) | callus induction (soybean seed (Tsurunoko)) | callus induction (tomato seed (Micro-Tom))
1 | c1cc2c(cc1CN1CCNCC1)OCO2 [1-piperonylpiperazine, 1-(3,4-methylenedioxybenzyl)piperazine] | callus induction activity was not observed | enlarged | increased | – | – | – | – | – | – | – | – | – | – | – | – | – | – | – | – | –
2 | O=C(O)COc1ccc(Cl)cc1 [4-chlorophenoxyacetic acid] | callus induction activity was observed | – | – | not high | reduced | – | – | – | – | – | – | – | – | – | – | – | – | – | – | –
3 | O=C(COc1ccc(Cl)cc1)N1CCN(Cc2ccc3c(c2)OCO3)CC1 [fipexide, 1-[(p-chlorophenoxy)acetyl]-4-piperonylpiperazine] | callus induction activity was observed | – | – | – | – | callus induction was observed | redifferentiation was observed | callus induction was observed in the stalks and the roots | callus induction was observed | redifferentiation was observed | GUS activity was observed in all samples | many calluses were formed | Callus formation was observed | callus induction was observed | callus formation was mainly observed in the root | in the shoot apex | suppressed | higher than that attained at the optimized auxin/cytokinine concentration | callus induction was observed | callus induction was observed

— patent US11345885B2, “Agent for inducing callus and method for inducing callus” (RIKEN, priority 2014, dated 2022)
